In assay [1] the test system is PadA1 activity in A. niger conidiospores. In words: 4-MCA cloud disappearance (OD 600 nm) assay for PadA1 activity in mould spores. The format is cell-based, Aspergillus niger. Particulars: 1 mM 4-methylcinnamic acid + 1 mM putative inhibitor, 10^6 conidiospores/ml, ACM pH 4.0, 28 C, samples at 5 and 72 hours. The protocol: FIG. 2—illustrates the disappearance of the dense cloud of 4-methylcinnamic acid after addition of A. niger spores. The strain of A. niger used is A. niger N402. 10^6 A. niger conidiospores/ml were added to ACM medium (Aspergillus Complete Medium—which contains per one litre of water, 20 g glucose, 1.5 g casamino acids, 2 g bacteriological peptone, 1.5 g yeast extract, 6 g […], 0.52 g potassium chloride, 0.52 g magnesium sulphate heptahydrate, 1.52 g potassium orthophosphate, 1 mg ferrous sulphate, 1 mg zinc sulphate) at pH 4.0 containing 1 mM 4-methylcinnamic acid at time 0. Replicate cultures of 10 mls medium in 30 ml sealed bottles were incubated at 28° C. and shaken at 120 rpm on an orbital shaker. Each point represents the mean value of two bottles removed, sampled, and tested in a spectrophotometer at 600 nm;
10^6 A. niger conidiospores/ml were added to ACM medium at pH 4.0 containing 1 mM 4-methylcinnamic acid at time 0 (control—circles). Replicate cultures contained 1 mM 4-methylcinnamic acid+1 mM cinnamaldehyde (squares). Bottles were incubated at 28° C. and shaken at 120 rpm on an orbital shaker.
In the examples below a carboxylic acid similar to sorbic acid was used as it has unexpected properties which allow it to be easily assayed. The acid used was 4-methylcinnamic acid (4-MCA), which like sorbic acid is degraded by A. niger spores.
Unexpectedly 4-MCA forms a dense white cloud when added to water or growth media for moulds (such as ACM). The opacity of the cloud, when measured at an OD of 600 nm, is directly proportional to the concentration of 4-MCA. This makes it easy to assay for changes in 4-MCA levels. Up until now degradation of 4-MCA and sorbic acid has been determined through the detection of the volatile products produced after decarboxylation. The volatile products can be detected by using GCMS (Gas Chromatography/Mass Spectrometry), which is a slow and time consuming process.
It is understood that PadA1 in the germinating mould spores degrades the 4-MCA causing the white cloud to progressively disappear. Cloud disappearance is also accompanied by appearance of 4-methylstyrene in the headspace above the liquid medium (as illustrated in FIG. 3), which is measured by GCMS.
(§1) All compounds were tested to see if they prevented the degradation of 4-MCA by adding 10^6 A. niger conidiospores/ml to ACM medium at pH 4.0 containing 1 mM 4-methylcinnamic acid+1 mM putative inhibitor. Bottles were incubated at 28° C. and shaken at 120 rpm on an orbital shaker. Samples were taken at 5 and 72 hours.

The test system of assay [2] is Aspergillus niger strain N402 conidiospores. In words: Spoilage of synthetic soft drink (ACM pH 4.0) with 300 ppm sorbic acid. Particulars: 300 ppm sorbic acid (2.68 mM) without PadA1 inhibitor, 28 days at 28 C. The format is cell-based.
Description: Tests were carried out using ACM medium, pH 4.0, as a synthetic soft drink. Sorbic acid was added to the ACM, synthetic soft drink, at 300 ppm, which is the maximum level permitted in Europe.
The method used involved placing 10 ml of ACM pH 4.0+300 ppm sorbic acid (2.68 mM) in glass bottles (all experiments were carried out in triplicate) and inncoculating each 10 mls with 1000 conidiospores per ml of Aspergillus niger strain N402. Growth was measured after 28 days incubation at 28° C. PadA1 inhibitors of Formula I were added at 0, 0.025 mM, 0.05 mM, 0.1 mM, 0.15 mM, 0.2 mM, 0.3 mM, 0.4 mM, 0.5 mM, 0.6 mM, 0.8 mM, 1 mM.
Assay [3] deals with A. niger N402 conidiospores. In words: MIC determination in ACM medium pH 4.0. Format: cell-based, Aspergillus niger. The following applies: 1000 A. niger N402 conidiospores/ml, ACM pH 4.0, 28 C, 28 days, triplicate. The protocol: The possibility that the compounds found to inhibit 4-MCA degradation were acting as toxic agents was examined, by determination of their MIC (Minimum Inhibitory Concentration) values. The MIC value is the lowest concentration of inhibitor that will completely prevent growth of a microbe. In this case, MIC values were determined by preparation of a triplicate series of bottles of ACM medium (pH 4.0 10 mls) each bottle containing progressively higher concentrations of an inhibitor. Bottles were inoculated with 1000 A. niger N402 conidiospores/ml and were incubated at 28° C. for 28 days. The MIC was the lowest concentration of inhibitor preventing mould growth in all three replicates, and any other higher concentration of inhibitor.

A further assay concerns A. niger conidiospores. In words: Mould growth in bottles containing 1 mM 4-MCA + 1 mM putative inhibitor. Format: cell-based, Aspergillus niger. The following applies: 1 mM 4-MCA + 1 mM compound. The protocol:
as §1
Furthermore, other compounds generally more mould-toxic than the compounds listed in Table 2, were not able to inhibit mould growth when allied with 4-MCA at 1 mM e.g. (2,4-decadienal).

`O=C(O)C#Cc1ccccc1` [Phenyl propiolic acid]: in assay [1], the “inhibition of degradation of 4-MCA by germinating conidiospores of A. niger” value (“inhibition of degradation of 4-MCA” for short) is on record as “inhibited degradation”.

On to `O=CC=Cc1ccccc1` [Cinnamaldehyde], for which, in assay [1], the “inhibition of degradation of 4-MCA” value is recorded as “inhibits the degradation”. `CC=CC=CC(=O)O` [sorbic acid, 2,4-hexadienoic acid]: the “prevention of spoilage by A. niger conidiospores of the synthetic soft drink, sorbic acid alone” value in assay [2] is listed as “insufficient to prevent spoilage”.

As to `CCCCCC=CC=CC=O` [2,4-decadienal], the “inhibition of degradation of 4-MCA” value in assay [1] is listed as “does not block PadA1 activity”. For the same compound, the “MIC (Minimum Inhibitory Concentration), comparison in words” value in assay [3] is recorded as “lower MIC than any of the compounds listed on Table 2”. For the same compound, the “mould growth in bottles with 4-MCA + compound” value with A. niger conidiospores was “Mould growth occurred”. Take `O=CC#Cc1ccccc1` [phenyl propargyl aldehyde]: the “inhibition of degradation of 4-MCA” value in assay [1] is “inhibited degradation”. For the compound `CCC=CC=CC=O` [2,4-Heptadienal], the “mould growth in bottles with 4-MCA + compound” value with A. niger conidiospores is recorded as “not”.

For the origin of these results see US20100221398A1, “PRESERVATIVE” (priority 2007, published 2010).
